A short description of data set [1]: Solubility in water (50 M H2O). Type of data set: physicochemical. As to conditions: 50 M H2O (90% H2O/10% DMSO). The method, then: (§1) Some difluoro-dioxaborinins are insoluble in water; therefore, solvolytic studies on these compounds were determined in 10% H2O/90% DMSO (5.55 M H2O, deionized). To relate the effect of water concentration to solvolysis, solvolytic studies on all water-soluble difluoro-dioxaborinins (DK-1, DK-2, DK-3, DK-6 and DK-15) were performed twice: once in 10% H2O/90% DMSO (5.55 M H2O) (FIG. 2A), and again in 90% H2O/10% DMSO (50 M H2O) (FIG. 2B). Studies performed in 50 M H2O reflect physiologically appropriate conditions, and allow comparison to literature aryl/alkyl trifluoroborate and dipyrromethene solvolytic stability measurements.^11, 14 Characterization in solutions with reduced water content, 5.55 M H2O, allows comparison of solvolytic rate constants to those of less-soluble difluoro-dioxaborinins. Difluorodioxaborinins solvolysis is not observed in pure (100%) DMSO.
Solvolysis is promoted by extending difluorodioxaborinin π-conjugation using moderately electron poor or electron-neutral substituents (DK-13 and DK-14). To evaluate the effect of extending the difluoro-dioxaborinin 4,5,6 π-system on solvolysis, compounds that bear extended π-conjugation through the difluoro-dioxaborinin moiety (positions 4, 5, and 6) were synthesized. ^19F NMR solvolytic measurements were performed only in 5.55 M H2O, as DK-13 and DK-14 are insoluble in 50 M H2O.

A short description of data set [2]: Optical properties (absorbance, fluorescence emission, quantum yield). Type of data set: physicochemical. As to conditions: for Quantum yield: Methanol.
Data set [3] in a line: 19F NMR solvolytic stability of difluoro-dioxaborinins in water/DMSO. As to conditions: for Fold increase in stability (90% → 10% H2O): 10% water/DMSO vs 90% water/DMSO; for times more resistant to solvolysis than DK-1: 50 M H2O. Type of data set: physicochemical. How it is done: Radioactive TLC and […]/^19F NMR studies were used to determine the solvolytic stability of difluoro-dioxaborinins.
as §1
The coefficient of determination (R^2) in all ^19F NMR solvolysis data closely follows single, 2 parameter exponential decay regression (f=a*exp(−k*x), R2 >0.99 in 88% of experiments).

The subject of data set [4] is MDA-MB-231. The experiment in a line: Inhibition of cell proliferation (IC50, MTS). The data set is classed as cell-based. How it is done:
(§2) As shown in FIGS. 11A-11E, cell viability as a function of Curcumin-BF2 concentration was evaluated for each of the cell lines in Example 5, showing the compounds of the present technology are effective in inhibiting cancer cell proliferation.

Data set [5] concerns A549. In words: Inhibition of cell proliferation (IC50, MTS). Type of data set: cell-based. How it is done: as §2
Data set [6] concerns HeLa. In words: Inhibition of cell proliferation (IC50, MTS). Type of data set: cell-based. How it is done:
as §2

Data set [7] concerns HCT116. The experiment in a line: Inhibition of cell proliferation (IC50, MTS). Type of data set: cell-based. How it is done: as §2
Data set [8] deals with MCF-7. In words: Inhibition of cell proliferation (IC50, MTS). Type of data set: cell-based. The method, then: as §2
Data set [9] deals with sentinel nodes. Particulars: non-targeted fluorescent contrasts, literature; cited from earlier work.

Regarding `CCOC(=O)CCC1=C(C)O[B-](F)(F)[O+]=C1C` [DK-6], the solubility in water result in data set [1] is listed as “water-soluble”. In data set [2], the Abs came out at 301 nm, the Em amounted to 307 nm, the “Extinction Coefficient” value is reported as 12,600 cm^−1M^−1 and the “Stokes Shift” value is on record as 6 nm. Besides, in [3], the “Fold increase in stability (90% → 10% H2O)” value came to 4.7 and the “times more resistant to solvolysis than DK-1” value (“times more resistant” for short) turned out to be 1.9.
For the molecule `CC1=C2CCCCC2=[O+][B-](F)(F)O1` [DK-15], the solubility in water entry in [1] is on record as “water-soluble”. In data set [2], the Abs amounted to 303 nm, the Em is 307 nm, the “Extinction Coefficient” value is 12,000 cm^−1M^−1 and the “Stokes Shift” value is recorded as 4 nm. Moreover, in data set [3], the “Fold increase in stability (90% → 10% H2O)” value was 5.0 and the “times more resistant” value is listed as 2.5.
As for `COc1cc(/C=C/C(=O)CC(=O)/C=C/c2ccc(O)c(OC)c2)ccc1O` [Curcumin, reference compound], the IC50 in data set [4] (Homo sapiens, MDA-MB-231, 24 h) stood at 32 ± 13 µM; in [4] (Homo sapiens, MDA-MB-231, 48 h), 26 ± 6 µM; in data set [5] (Homo sapiens, A549, 24 h), 50 ± 4 µM; in [5] (Homo sapiens, A549, 48 h) it was 25 ± 1 µM; in [6] (Homo sapiens, 24 h), 16 ± 3 µM; in [6] (Homo sapiens, 48 h), 19 ± 6 µM. The IC50 was found to be 27 ± 5 µM in [7] (Homo sapiens, HCT-116, HCT116, 24 h); 16 ± 2 µM in [7] (Homo sapiens, HCT-116, HCT116, 48 h); 27 ± 8 µM in data set [8] (Homo sapiens, MCF7, MCF-7, 24 h); 35 ± 3 µM in data set [8] (Homo sapiens, MCF7, MCF-7, 48 h). This molecule also had an Abs in [2] of 434 nm. For the same molecule, the Em in [2] turned out to be 535 nm. For the same molecule, in data set [2], the “Extinction Coefficient” value is reported as 56,500 cm^−1M^−1. The “Stokes Shift” value in data set [2] was 101 nm. The same molecule registered a Quantum yield in [2] of 2.4%.
With `COc1ccc(C2=CC(c3ccc(C(C)(C)C)cc3)=[O+][B-](F)(F)O2)cc1` [DK-16], in [1], the solubility in water entry is “insoluble”. In data set [2], the Abs came to 400 nm, the Em is 439 nm, the “Extinction Coefficient” value is listed as 62,000 cm^−1M^−1 and the “Stokes Shift” value amounted to 39 nm. In data set [2], the Quantum yield is listed as 67.3%. In data set [3] (5.55 M H2O), the “fold slower solvolysis (more stable) than DK-1” value amounted to 15 and the “fold slower solvolysis than DK-2” value worked out at 2.2.
For `CC1=[O+][B-](F)(F)OC(C)=C1C` [DK-2], in data set [1], the solubility in water result is reported as “water-soluble”. In data set [2], the Abs is 303 nm, the Em was found to be 307 nm, the “Extinction Coefficient” value is 12,200 cm^−1M^−1 and the “Stokes Shift” value was 4 nm. Also, in data set [3], the “Fold increase in stability (90% → 10% H2O)” value was 3.2 and the “times more resistant” value worked out at 6.2.
With `COc1cc(/C=C/C2=CC(/C=C/c3ccc(OC(=O)CCN4C(=O)C=CC4=O)c(OC)c3)=[O+][B-](F)(F)O2)ccc1OC(=O)CCN1C(=O)C=CC1=O` [Cur-BF2-2Mal], in [2], the Abs turned out to be 434 nm, the Em is reported as 509 nm, the “Extinction Coefficient” value is on record as 54,000 cm^−1M^−1 and the “Stokes Shift” value worked out at 75 nm. The same molecule gave a Quantum yield in data set [2] of 3.1%. Besides, in [3] (5.55 M H2O), the “fold more rapid solvolysis than Cur-BF2” value stood at 24 and the “fold slower solvolysis (more stable) than DK-1” value turned out to be 2.1.
Take `F[B-]1(F)OC(c2ccccc2)=CC(c2ccccc2)=[O+]1` [DK-13]: in data set [1], the solubility in water result is reported as “insoluble”. Further, in data set [2], the Abs stood at 363 nm, the Em was determined as 413 nm, the “Extinction Coefficient” value is 38,000 cm^−1M^−1 and the “Stokes Shift” value is listed as 50 nm. Besides, in data set [2], the Quantum yield worked out at 11.2%. Further, in [3] (5.55 M H2O), the “fold slower solvolysis (more stable) than DK-1” value turned out to be 1.4 and the “times more rapid solvolysis than DK-2” value amounted to 5.0.
`CC1(C)C(/C=C/C=C/C=C/C=C2\N(CCCCS(=O)(=O)O)c3ccc4ccccc4c3C2(C)C)=[N+](CCCCS(=O)(=O)[O-])c2ccc3ccccc3c21` [indocyanine green]: the “behaviour in sentinel node mapping” value in [9] is “travel through sentinel nodes to delineate multiple non-sentinel nodes”.
As for `COc1cc(/C=C/C2=CC(/C=C/c3ccc(O)c(OC)c3)=[O+][B-](F)(F)O2)ccc1O` [Cur-BF2], in [1], the solubility in water result is reported as “insoluble”. Also, the IC50 stood at 11 ± 1 µM in data set [4] (MDA-MB-231, 24 h); 6 ± 1 µM in [4] (MDA-MB-231, 48 h); 27 ± 3 µM in [5] (A549, 24 h); 5.5 ± 0.3 µM in data set [5] (A549, 48 h); 5.4 ± 0.4 µM in data set [6] (24 h); 4.2 ± 0.2 µM in data set [6] (48 h). In addition, the IC50 worked out at 3.31 ± 0.04 µM in data set [7] (HCT116, 24 h); 4.3 ± 0.2 µM in data set [7] (HCT116, 48 h); 10 ± 4 µM in data set [8] (MCF-7, 24 h); 4.8 ± 0.2 µM in data set [8] (MCF-7, 48 h). Besides, in [2], the Abs came to 500 nm. For the same molecule, the Em in data set [2] is 571 nm. For the same molecule, the “Extinction Coefficient” value in data set [2] was 73,000 cm^−1M^−1.
On to `CC1=CC(C)=[O+][B-](F)(F)O1` [DK-1], for which, in data set [1], the solubility in water result is “water-soluble”. In addition, in [2], the Abs was determined as 279 nm, the Em is on record as 305 nm, the “Extinction Coefficient” value is 9,180 cm^−1M^−1 and the “Stokes Shift” value is reported as 26 nm. Further, the “Fold increase in stability (90% → 10% H2O)” value in data set [3] is given as approximately 2.8. In data set [3] (50 M H2O (90% water, 10% DMSO)), the “solvolysis rate constant, k” value was 0.254 ± 0.002 h⁻¹. Moreover, in data set [3] (100% DMSO), the “solvolysis in absence of water” value is listed as “not observed”. This molecule also came in with a fraction decomposed in [3] ([…] (one fluoride-18 half-life), from rate constant at 50 M H2O) of 37%.
`CC1=CC(c2ccccc2)=[O+][B-](F)(F)O1` [DK-14]: the solubility in water entry in [1] is on record as “insoluble”. For the same molecule, in data set [2], the Abs came out at 325 nm, the Em came to 328 nm, the “Extinction Coefficient” value was 19,800 cm^−1M^−1 and the “Stokes Shift” value is recorded as 3 nm. Further, the “fold more rapid solvolysis than DK-1” value in data set [3] (5.55 M H2O) is on record as 1.7.
Regarding `CCN(CC)c1ccc(C(=C2C=CC(=[N+](CC)CC)C=C2)c2cc(S(=O)(=O)[O-])ccc2S(=O)(=O)[O-])cc1.[Na+]` [lymphazurin, isosulfan blue], in data set [9], the “behaviour in sentinel node mapping” value is on record as “travel through sentinel nodes to delineate multiple non-sentinel nodes”.
Take `COc1ccc(C2=CC(c3ccc(OC)cc3)=[O+][B-](F)(F)O2)cc1` [DK-17]: the solubility in water result in data set [1] is on record as “insoluble”. For the same molecule, in [2], the Abs is 408 nm, the Em is 438 nm, the “Extinction Coefficient” value is on record as 63,600 cm^−1M^−1 and the “Stokes Shift” value came to 30 nm. The Quantum yield in data set [2] is listed as 65.8%. Further, in data set [3] (5.55 M H2O), the “fold slower solvolysis (more stable) than DK-1” value amounted to 16 and the “fold slower solvolysis than DK-2” value is given as 2.3.
As for `CCC1=C(C)O[B-](F)(F)[O+]=C1C` [DK-3], the solubility in water entry in [1] was “water-soluble”. Moreover, in [2], the Abs is recorded as 303 nm, the Em was 306 nm, the “Extinction Coefficient” value is 12,000 cm^−1M^−1 and the “Stokes Shift” value was 3 nm. For the same molecule, in data set [3], the “Fold increase in stability (90% → 10% H2O)” value was determined as 3.5 and the “times more resistant” value is listed as 5.6.

As usually defined, the IC50 is the point on the concentration scale where inhibition reaches its midpoint.

Values taken from patent US12378261B2, “One-step, fast, 18F-19F isotopic exchange radiolabeling of difluoro-dioxaborinins and use of such compounds in treatment” (CORNELL UNIVERSITY, priority 2018, dated 2025).
